pIC50: −log10 of the molar value.
Columns and labels:
[1] = target: T1, HSV-1 protease (Human herpesvirus 1, UniProt P10210); test: Enzymatic assay for HSV-1 protease (assembly) inhibitor, fluorescence polarization; format: biochemical; settings: read-out: HSV-1 Enzyme inhibition IC50
T1 construct: 6xHis (N); made in house; host or cells: baculovirus expression system
How it was run: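 Fluorescence polarization read-out: after avidin stop, cleavage of a biotinylated DTAF-labelled release-site peptide by recombinant N-His6 HSV-1 protease was compared with no-inhibitor wells. Enzyme and compound were preincubated 30 min, then substrate reacted 60 min, all at room temperature, pH 7.4 citrate buffer with TCEP.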

[2] = test system: HSV-1; test: Antiviral activity, HSV-1 in Vero cells, plaque method; format: cell-based; settings: Human alphaherpesvirus 1, 20 hours, 90% inhibition of plaque formation
How it was run: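 This is a virus-yield read-out. The culture medium was frozen at −80° C and thawed, and the plaques it formed were counted. It came from Vero monolayers infected with 50,000 pfu HSV-1 and then exposed to the compound for 20 h at 37° C. EC90 is the concentration inhibiting 90% of plaque formation relative to the untreated infected control.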

[3] = test system: Vero cells; test: Cytotoxicity, Vero cells, Alamar Blue; format: cell-based; settings: 25 μM, 20 hours
How it was run: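 Living-cell ratio versus untreated control was read by Alamar Blue absorbance after about 6 h of dye incubation. Before that, Vero cells had received 25 μM test compound in 2% FBS-DMEM for 20 hours at 37 °C under 5% CO2.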

T1 sequence (P10210 1-247): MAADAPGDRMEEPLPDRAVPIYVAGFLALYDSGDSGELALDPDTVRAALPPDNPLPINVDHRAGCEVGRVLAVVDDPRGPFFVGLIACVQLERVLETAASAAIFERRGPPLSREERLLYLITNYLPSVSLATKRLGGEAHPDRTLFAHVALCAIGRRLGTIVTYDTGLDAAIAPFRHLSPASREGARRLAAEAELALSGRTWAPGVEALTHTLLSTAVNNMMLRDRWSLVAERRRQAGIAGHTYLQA

Row | SMILES | pIC50 [1] | EC90 [2] [µM] | Cell viability (% of control) [3] [%]
1 | CCCCOc1ccc(C(=O)Nc2ccc3nc(NC(C)(C)C(=O)N(C)CCc4ccccn4)oc(=O)c3c2C)cc1 [Compound No.165, 4-Butoxy-N-(5-methyl-2-{1-methyl-1-[methyl-(2-pyridin-2-yl-ethyl)-carbamoyl]-ethylamino}-4-oxo-4H-benzo[d][1,3]oxazin-6-yl)-benzamide] | 5.70 | 3.6 | 16.9
2 | Cc1c(NC(=O)OC(C)(C)C)ccc2nc(N3Cc4ccccc4C[C@H]3C(=O)NCCc3ccccn3)oc(=O)c12 [Compound No.97, {5-Methyl-4-oxo-2-[3S-(2-pyridin-2-yl-ethylcarbamoyl)-3,4-dihydro-1H-isoquinolin-2-yl]-4H-benzo[d][1,3]oxazin-6-yl}-carbamic acid tert-butyl ester] | 5.48 | 11 | 51.3
3 | Cc1c(NC(=O)OC(C)(C)C)ccc2nc(N3C[C@H](OCc4ccccc4)C[C@H]3C(=O)N(C)Cc3ccccn3)oc(=O)c12 [Compound No.113, {2-[4R-Benzyloxy-2S-(methyl-pyridin-2-ylmethyl-carbamoyl)-pyrrolidin-1-yl]-5-methyl-4-oxo-4H-benzo[d][1,3]oxazin-6-yl}-carbamic acid tert-butyl ester] | 5.00 | 8.8 | 71.7
4 | COCC(=O)Nc1ccc2nc(NC(C)(C)C(=O)N(C)CCc3ccccn3)oc(=O)c2c1C [Compound No.137, 2-[6-(2-Methoxy-acetylamino)-5-methyl-4-oxo-4H-benzo[d][1,3]oxazin-2-ylamino]-2,N-dimethyl-N-(2-pyridin-2-yl-ethyl)-propionamide] | 5.38 | > 12.5 | 98.2
5 | Cc1c(NC(=O)OC(C)(C)C)ccc2nc(N3CCC[C@H]3C(=O)N(C)CCc3ccccn3)oc(=O)c12 [Compound No.91, (5-Methyl-2-{2S-[methyl-(2-pyridin-2-yl-ethyl)-carbamoyl]-pyrrolidin-1-yl}-4-oxo-4H-benzo[d][1,3]oxazin-6-yl)-carbamic acid tert-butyl ester] | < 4.70 | > 12.5 | 92.3
6 | Cc1c(NC(=O)OC(C)(C)C)ccc2nc(N[C@H](C(=O)NCCc3ccccn3)C(C)C)oc(=O)c12 [Compound No.26, {5-Methyl-2-[2-methyl-1S-(2-pyridin-2-ylethylcarbamoyl)-propylamino]-4-oxo-4H-benzo[d][1,3]oxazin-6-yl}-carbamic acid tert-butyl ester] | 5.49 | 13 | 107.0
7 | Cc1c(NC(=O)OC(C)(C)C)ccc2nc(N[C@@H](CC3CCCCC3)C(=O)N(C)CCc3cccnc3)oc(=O)c12 [Compound No.69, (2-{2-Cyclohexyl-1S-[methyl-(2-pyridin-3-yl-ethyl)-carbamoyl]-ethylamino}-5-methyl-4-oxo-4H-benzo[d][1,3]oxazin-6-yl)-carbamic acid tert-butyl ester] | 5.44 | < 3.2 | 49.5
8 | Cc1c(NC(=O)OC(C)(C)C)ccc2nc(N3CCCC[C@H]3C(=O)NCc3ccncc3)oc(=O)c12 [Compound No.104, (5-Methyl-4-oxo-2-{2S-[(pyridin-4-ylmethyl)-carbamoyl]-piperidin-1-yl}-4H-benzo[d][1,3]oxazin-6-yl)-carbamic acid tert-butyl ester] | 5.37 | > 12.5 | 63.0
9 | Cc1c(NC(=O)OC(C)(C)C)ccc2nc(N3CCC[C@H]3C(=O)N(C)Cc3ccccn3)oc(=O)c12 [Compound No.90, {5-Methyl-2-[2S-(methyl-pyridin-2-ylmethyl-carbamoyl)-pyrrolidin-1-yl]-4-oxo-4H-benzo[d][1,3]oxazin-6-yl}-carbamic acid tert-butyl ester] | 4.77 | > 12.5 | 93.6
10 | CCCCCc1ccc(C(=O)Nc2ccc3nc(NC(C)(C)C(=O)N(C)CCc4ccccn4)oc(=O)c3c2C)cc1 [Compound No.185, N-(5-Methyl-2-{1-methyl-1-[methyl-(2-pyridin-2-yl-ethyl)-carbamoyl]-ethylamino}-4-oxo-4H-benzo[d][1,3]oxazin-6-yl)-4-pentyl-benzamide] | 5.15 | 3.5 | 29.0

Further molecules by rising pIC50 [1], results first:

Row | pIC50 [1] | EC90 [2] [µM] | SMILES | Cell viability (% of control) [3] [%]
11 | 5.55 | 11.4 | COc1ccccc1C(=O)Nc1ccc2nc(NC(C)(C)C(=O)N(C)CCc3ccccn3)oc(=O)c2c1C [Compound No.161, 2-Methoxy-N-(5-methyl-2-{1-methyl-1-[methyl-(2-pyridin-2-yl-ethyl)-carbamoyl]-ethylamino}-4-oxo-4H-benzo[d][1,3]oxazin-6-yl)-benzamide] | 44.1
12 | 5.64 | 5.4 | Cc1c(NC(=O)OC(C)(C)C)ccc2nc(N3Cc4ccccc4C[C@H]3C(=O)NCc3ccccn3)oc(=O)c12 [Compound No.94, (5-Methyl-4-oxo-2-{3S-[(pyridin-2-ylmethyl)-carbamoyl]-3,4-dihydro-1H-isoquinolin-2-yl}-4H-benzo[d][1,3]oxazin-6-yl)-carbamic acid tert-butyl ester] | 55.2
13 | 5.64 | > 12.5 | Cc1c(NC(=O)c2ccccc2C(F)(F)F)ccc2nc(NC(C)(C)C(=O)N(C)CCc3ccccn3)oc(=O)c12 [Compound No.144, N-(5-Methyl-2-{1-methyl-1-[methyl-(2-pyridin-2-yl-ethyl)-carbamoyl]-ethylamino}-4-oxo-4H-benzo[d][1,3]oxazin-6-yl)-2-trifluoromethyl-benzamide] | 76.1
14 | 5.74 | 10.2 | COc1cccc(C(=O)Nc2ccc3nc(NC(C)(C)C(=O)N(C)CCc4ccccn4)oc(=O)c3c2C)c1 [Compound No.162, 3-Methoxy-N-(5-methyl-2-{1-methyl-1-[methyl-(2-pyridin-2-yl-ethyl)-carbamoyl]-ethylamino}-4-oxo-4H-benzo[d][1,3]oxazin-6-yl)-benzamide] | 75.5
15 | 5.82 | 12.4 | Cc1c(NC(=O)OC(C)(C)C)ccc2nc(N[C@@H](CCc3ccccc3)C(=O)NCc3ccccn3)oc(=O)c12 [Compound No.39, (5-Methyl-4-oxo-2-{3-phenyl-1S-[(pyridin-2-ylmethyl)-carbamoyl]-propylamino}-4H-benzo[d][1,3]oxazin-6-yl)-carbamic acid tert-butyl ester] | 90.1
16 | 5.89 | 12.4 | Cc1c(NC(=O)c2cccc3ccccc23)ccc2nc(NC(C)(C)C(=O)N(C)CCc3ccccn3)oc(=O)c12 [Compound No.190, Naphthalene-1-carboxylic acid (5-methyl-2-{1-methyl-1-[methyl-(2-pyridin-2-yl-ethyl)-carbamoyl]-ethylamino}-4-oxo-4H-benzo[d][1,3]oxazin-6-yl)-amide] | 74.5
17 | 5.89 | 3.6 | Cc1c(NC(=O)c2ccc(C(C)(C)C)cc2)ccc2nc(NC(C)(C)C(=O)N(C)CCc3ccccn3)oc(=O)c12 [Compound No.168, 4-tert-Butyl-N-(5-methyl-2-{1-methyl-1-[methyl-(2-pyridin-2-yl-ethyl)-carbamoyl]-ethylamino}-4-oxo-4H-benzo[d][1,3]oxazin-6-yl)-benzamide] | 16.8
18 | 5.92 | 3.7 | Cc1c(NC(=O)OC(C)(C)C)ccc2nc(N[C@@H](CCc3ccccc3)C(=O)N(C)CCc3ccccn3)oc(=O)c12 [Compound No.48, (5-Methyl-2-{1S-[methyl-(2-pyridin-2-yl-ethyl)-carbamoyl]-3-phenyl-propylamino}-4-oxo-4H-benzo[d][1,3]oxazin-6-yl)-carbamic acid tert-butyl ester] | 44.2
19 | 5.96 | 11.3 | Cc1c(NC(=O)CCC2CCCCC2)ccc2nc(NC(C)(C)C(=O)N(C)CCc3ccccn3)oc(=O)c12 [Compound No.160, 2-[6-(3-Cyclohexyl-propionylamino)-5-methyl-4-oxo-4H-benzo[d][1,3]oxazin-2-ylamino]-2,N-dimethyl-N-(2-pyridin-2-yl-ethyl)-propionamide] | 13.0
20 | 6.05 | < 3.2 | Cc1c(NC(=O)OC(C)(C)C)ccc2nc(N[C@@H](CCc3ccccc3)C(=O)N(C)CCc3cccnc3)oc(=O)c12 [Compound No.70, (5-Methyl-2-{1S-[methyl-(2-pyridin-3-yl-ethyl)-carbamoyl]-3-phenyl-propylamino}-4-oxo-4H-benzo[d][1,3]oxazin-6-yl)-carbamic acid tert-butyl ester] | 48.0
21 | 6.05 | 5.8 | Cc1c(NC(=O)c2sc3ccccc3c2Cl)ccc2nc(NC(C)(C)C(=O)N(C)CCc3ccccn3)oc(=O)c12 [Compound No.178, 3-Chloro-benzo[b]thiophene-2-carboxylic acid (5-methyl-2-{1-methyl-1-[methyl-(2-pyridin-2-yl-ethyl)-carbamoyl]-ethylamino}-4-oxo-4H-benzo[d][1,3]oxazin-6-yl)-amide] | 28.1
